The text below walks through data of patent US9896445B2, “Heterocyclic inhibitors of ERK1 and ERK2 and their use in the treatment of cancer” (Asana Biosciences, LLC, priority 2015, dated 2018).

Like-named read-outs stand apart in the source and are kept apart here.

The subject of assay [1] is HT-29 (colorectal carcinoma, B-RafV600E) cells. The assay can be described thus: Cell proliferation (Alamar Blue) assay, HT-29. It counts as cell-based, human. Conditions: HT29 cells. The procedure: (§1) Cell Proliferation (Alamar Blue) Assay
(§2) HT-29 (colorectal carcinoma, B-RafV600E), HCT116 (colorectal carcinoma, K Ras G13D), A375 (melanoma, B-RafV600E) and SK-Mel2 (melanoma, NRAS Q61R) cells (obtained from ATCC, USA) were seeded (5000 cells/well) in 96-well tissue culture plate and incubated at 37° C./5% CO2 for 16-24 hours. The cells were then treated with compounds, at concentrations typically from 0.0005 to 10 uM prepared in 3-fold serial dilutions. The plates were then incubated for 72 h at 37° C./5% CO2 in a moist environment. Then Alamar Blue™ reagent (final concentration 1×) was added to each well and incubated for 1-3 h at 37° C./5% CO2. The plates were read on fluorescence reader at 540 nm excitation and 590 nm emission wavelengths. The IC50 values were subsequently determined using a sigmoidal dose-response curve (variable slope) using GraphPad Prism® 5 software.
(In general: Alamar Blue is a resazurin reagent that responds to reducing activity.)

The subject of assay [2] is phospho-RSK1(S380). The assay can be described thus: Phospho-RSK1(S380) ELISA assay in HT-29 cells. It counts as cell-based, human. Conditions: read-out: Mechanist Cell Assay RSK1 Phos HT29 IC50. The procedure:
Phospho-RSK1(S380) ELISA Assay
HT-29 cells (colorectal carcinoma, B-RafV600E); obtained from ATCC, USA) were seeded (60,000 cells/well) in a 96-well plate and incubated at 37° C./5% CO2 overnight and then treated with desired compound dilutions for 2 h. Medium was removed and cells were rinsed once with ice-cold 1×PBS, then 0.070 mL ice-cold 1× cell lysis buffer containing 1 mM PMSF was added to each well and the plate was incubated on a shaker for 2 h and 30 min at 4° C. The plate was then centrifuged for 20 min (×4000 rpm) at 4° C. and the supernatant was transferred to a new plate. Cell lysates were diluted with sample diluent at a ratio of 1:1. The ELISA was then carried out following the manufacturer's protocol (PathScan® phospho-RSK1(Ser380) Sandwich ELISA Kit, Cell Signaling Technologies). The plate was read at 450 nm within 30 min after adding STOP solution. The IC50 values were subsequently determined using a sigmoidal dose-response curve (variable slope) in GraphPad Prism® 5 software.
(In general: ELISA stands for enzyme-linked immunosorbent assay.)

The subject of assay [3] is HCT116 (colorectal carcinoma, K Ras G13D) cells. The assay can be described thus: Cell proliferation (Alamar Blue) assay, HCT116. It is filed as cell-based, human. The procedure:
as §1, §2

The target in assay [4] is T1, ERK2 (Homo sapiens, UniProt P28482).
T1 construct: purchased Jubilant Biosys
T1 sequence (P28482 whole entry): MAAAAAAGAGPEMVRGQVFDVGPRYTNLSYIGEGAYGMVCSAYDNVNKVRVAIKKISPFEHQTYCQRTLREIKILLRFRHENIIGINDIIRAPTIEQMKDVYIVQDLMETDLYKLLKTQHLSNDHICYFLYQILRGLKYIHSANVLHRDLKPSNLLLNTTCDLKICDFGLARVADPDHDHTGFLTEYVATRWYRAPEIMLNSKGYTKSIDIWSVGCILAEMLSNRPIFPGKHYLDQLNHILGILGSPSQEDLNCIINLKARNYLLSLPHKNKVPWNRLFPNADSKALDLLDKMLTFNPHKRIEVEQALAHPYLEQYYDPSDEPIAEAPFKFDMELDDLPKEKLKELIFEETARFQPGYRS
The assay can be described thus: ERK2 HTRF (biochemical) assay. To be noted: HTRF. The method, boiled down: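 Compounds were tested as half-log dilutions from 0.0005 to 10 uM in Tris pH 7.5/MgCl2 buffer, with a substrate mix of 1 uM biotin-MBP peptide and 24 uM ATP and an enzyme mix of 25 nM ERK2. Reaction ran 60 min at room temperature. Phospho-MBP was detected by HTRF (Eu-anti-phospho-MBP/SA-APC, 665/620 nm), and IC50 was fitted with a variable-slope sigmoidal curve.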

Assay [5] deals with T2, ERK1 (Homo sapiens, UniProt P27361).
T2 construct: purchased Jubilant Biosys
T2 sequence (P27361 whole entry): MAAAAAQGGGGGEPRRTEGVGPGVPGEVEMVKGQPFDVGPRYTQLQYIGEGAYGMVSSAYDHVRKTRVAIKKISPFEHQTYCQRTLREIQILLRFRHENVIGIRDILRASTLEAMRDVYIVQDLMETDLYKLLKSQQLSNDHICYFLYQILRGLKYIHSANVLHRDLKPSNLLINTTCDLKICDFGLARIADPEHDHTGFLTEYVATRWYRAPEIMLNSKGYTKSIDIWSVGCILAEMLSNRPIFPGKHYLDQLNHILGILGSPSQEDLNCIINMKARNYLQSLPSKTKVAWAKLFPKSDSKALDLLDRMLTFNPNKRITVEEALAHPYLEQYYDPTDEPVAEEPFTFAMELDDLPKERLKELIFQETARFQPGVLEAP
The assay can be described thus: ERK1 HTRF (biochemical) assay. To be noted: HTRF. The procedure: ERK1 and ERK2 HTRF (Biochemical) Assays
These assays employed a homogeneous time resolved fluorescence (HTRF) technique. […] The plate was incubated at room temperature for 60 min with shaking. […] The IC50 values (half maximal inhibitory concentration values) were subsequently determined using a sigmoidal dose-response curve (variable slope) in GraphPad Prism® 5 software.
(Time-resolved FRET reads energy transfer from a long-lived donor to a nearby acceptor.)

What is called IC50 is the concentration that inhibits the measured activity by half. As to `Cc1cnc(NC2CCOCC2)nc1-n1cnc(C(=O)NC(CN)c2cc(F)cc(Cl)c2)c1` (stereo not shown) [Compound 236, N-(2-amino-1-(3-chloro-5-fluoro-phenyl)ethyl)-1-(5-methyl-2-((tetrahydro-2H-pyran-4-yl)amino)-pyrimidin-4-yl)-1H-imidazole-4-carboxamide], the IC50 in assay [1], in assay [2] (HT29 cells) and in assay [3] (HCT116 cells) was ≤ 100 nM each time.

For the compound `Cc1cnc(NC2CCOCC2)nc1-n1cnc(C(=O)N[C@]2(c3cccc(Cl)c3)C[C@H](O)C2)c1` [Compound 245, N-((1s,3s)-1-(3-chlorophenyl)-3-hydroxycyclobutyl)-1-(5-methyl-2-((tetrahydro-2H-4-yl)amino)pyrimidin-4-yl)-1H-imidazole-4-carboxamide], the IC50 was ≤ 50 nM in assay [4]; < 50 nM in assay [5]; 250 to 500 nM in assay [2] (Homo sapiens, HT-29, HT29 cells); 500 to 2500 nM in assay [3] (Homo sapiens, HCT-116, HCT116 cells).
